For assay [1], the target named is T1, PMM2 (wt-PMM2) (Homo sapiens, UniProt O15305).
T1 construct: recombinant, vector Pet22b+, E. coli BL21(DE3), no tag mentioned; homodimer; DEAE-Sepharose and Superdex 75 purification
T1 sequence (O15305 2-246): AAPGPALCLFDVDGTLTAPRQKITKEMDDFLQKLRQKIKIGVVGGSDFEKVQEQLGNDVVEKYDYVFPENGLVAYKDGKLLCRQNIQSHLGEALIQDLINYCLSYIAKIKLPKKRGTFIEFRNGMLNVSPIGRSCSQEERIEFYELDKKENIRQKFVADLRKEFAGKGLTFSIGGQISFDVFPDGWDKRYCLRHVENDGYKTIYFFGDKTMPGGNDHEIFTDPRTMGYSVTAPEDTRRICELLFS
The assay can be described thus: thermal shift assay (Sypro Orange). The class given is binding. As to conditions: 0.5 mM ligand, without vanadate; Hepes 20 mM pH 7.5, Mg2+, NaCl, DTT.

The target of assay [2] is T1, PMM2 (wt-PMM2). As to the kind of experiment: […]-NMR phosphomannomutase assay. As to conditions: inhibitor; βG16P 5 or 50 μM; 1 mM αM1P, activator αG16P 5 μM; Hepes pH 7.3, MgCl2 1 mM, 32 °C. In kind it is biochemical.

SMILES strings stand for the structures.

Turning to `O=P(O)(O)O[C@H]1O[C@H](CO)[C@@H](O)[C@H](O)[C@H]1O` [αG1P], on PMM2 (wt-PMM2) [1], the dTm entry is listed as “αG1P is a stabilizer of PMM2 too”. On to `O=P(O)(O)OC[C@H]1O[C@@H](OP(=O)(O)O)[C@H](O)[C@@H](O)[C@@H]1O` [βG16P], for which, at PMM2 (wt-PMM2) [2], the inhibition entry is “βG16P is not an activator and show that it inhibits PMM2”.

For the origin of these results see paper PMC6747070, “β-Glucose-1,6-Bisphosphate Stabilizes Pathological Phophomannomutase2 Mutants In Vitro and Represents a Lead Compound to Develop Pharmacological Chaperones for the Most Common Disorder of Glycosylation, PMM2-CDG” (International Journal of Molecular Sciences, 2019).
